Counter-ions that a name gives are not always drawn. Like-named read-outs stand apart in the source and are kept apart here.

The record followed here is US20260274814A1, “THIENYL COMPOUNDS FOR THE TREATMENT OF A CENTRAL NERVOUS SYSTEM DISEASE OR DISORDER” (Coreterra Therapeutics, Inc., priority 2023, published 2026).

The test deals with mice. As to the kind of experiment: Neuropharmacological Assay (SmartCube): automated behavioral signature of compound-treated mice compared with a database of reference drug classes. The note with it: for minimal effective dose: Mus musculus, ip; for minimal effective dose / MED (minimal effective dose): i.p., that dose is shown. It is filed as in vivo. From the text: Neurosci. 2011 Sep. 9; 5: 103 (doi: 10.3389/fnins.2011.00103) (“Roberds”). As reported in Roberds, because psychiatric diseases generally result from disorders of cell-cell communication or circuitry, intact systems are useful in detecting improvement in disease-relevant endpoints. These endpoints are typically behavioral in nature, often requiring human observation and interpretation. To facilitate testing of multiple compounds for behavioral effects relevant to psychiatric disease, PsychoGenics, Inc. (Tarrytown, NY, “PGI”) developed SmartCube™ an automated system in which behaviors of compound-treated mice are captured by digital video and analyzed with computer algorithms. (D. Brunner et al. Drug Discov. Today 2002, 7:S107-S112). PGI Analytical Systems uses data from SmartCube™ to compare the behavioral signature of a test compound to a database of behavioral signatures obtained using a large set of diverse reference compounds. (The composition of the database as well as validation of the method is further described in Roberds). In this way, the neuropharmacological effects of a test compound can be predicted by similarity to major classes of compounds, such as antipsychotics, anxiolytics and antidepressants.
The SmartCube™ system produces an activity signature indicating the probability that the activity of the test compound at the administered dose matches a given class of neuropharmacological agents. (See, e.g., Roberds, FIGS. 2 and 3). The test compound is simultaneously compared against multiple classes of agents; thus, a separate probability is generated for each behavioral effect measured (e.g., anxiolytic activity, analgesic activity, etc.). In table 2 below, these probabilities are reported for each behavioral effect measured as described in Table 1 below.
Provided compounds were dissolved in a mixture of Pharmasolve™ (N-methyl-2-pyrrolidone), polyethylene glycol and propylene glycol, and were injected i.p. 15 min. before the behavioral test. For each compound, injections were administered at 3 different doses. For each behavioral effect measured, results for the 3.0 mg/kg dose are presented. The potency of many of the compounds in the table was also determined in the SmartCube™ system. Test compounds were routinely examined at dose levels of 0.3, 1, 3 and 10 mg per kg (mpk), although the dose range was increased or decreased, if necessary, to obtain a full dose response curve. A compound's minimal effective dose (MED) is a measure of the compound's potency. The MED was defined as the dose (in mpk) having 45% or more total activity in SmartCube. If only one dose was tested, that dose is shown in the MED column of Table 2 even though the dose is not known to be the MED.

Where [1] appears, read: dose having 45% or more total activity in SmartCube, if only one dose was tested, read-out: MED (minimal effective dose).
The mark [2] stands for this setting: probability that activity matches this class of agents, 3.0 mg/kg i.p., 15 min before test.
[3] abbreviates: SmartCube class probability, 3.0 mg/kg i.p., 15 min before test.
The mark [4] stands for this setting: SmartCube probability class, 3.0 mg/kg dose, i.p. 15 min before the behavioral test.
Setting [5] is: dose having 45% or more total activity in SmartCube, if only one dose was tested, hydrochloride.
[6] abbreviates: probability that activity matches this class of agents, 3.0 mg/kg i.p., 15 min before test, hydrochloride, 3 mg/kg.

Regarding `CNC1CCc2cc(F)sc2C1` (racemic) [Compound 79, 2-fluoro-N-methyl-4,5,6,7-tetrahydrobenzothiophen-6-amine hydrochloride], under setting [1], the minimal effective dose amounted to 1 mg/kg. Moreover, under setting [2], the AD entry is “++ (≥24%)”, the AG result was “ND (^ <4%)”, the AN entry is reported as “ND (^ <4%)” and the AP entry is recorded as “+ (≥4%)”. Under setting [2], the AX result is “++ (≥24%)”, the CE entry is given as “ND (^ <4%)”, the HL entry is “ND (^ <4%)” and the MS result was “ND (^ <4%)”. Further, under setting [2], the PS entry is given as “ND (^ <4%)”, the SH entry is on record as “ND (^ <4%)” and the UK result is given as “ND (^ <4%)”.
In the case of `CNC1(C)CCc2cscc2C1` (racemic) [Compound 103, racemic N, 5-dimethyl-6,7-dihydro-4H-2-benzothiophen-5-amine hydrochloride], the minimal effective dose under setting [1] came out at 1 mg/kg. Under setting [2], the AD result was “ND (^ <4%)”, the AG entry is “ND (^ <4%)”, the AN result was “ND (^ <4%)” and the AP result is “ND (^ <4%)”. Under setting [2], the AX entry is “ND (^ <4%)”, the CE result is recorded as “ND (^ <4%)”, the HL result was “ND (^ <4%)” and the MS result is on record as “ND (^ <4%)”. Moreover, under setting [2], the PS result was “ND (^ <4%)”, the SH entry was “ND (^ <4%)” and the UK entry is “+++ (≥49%)”.
Regarding `CNC1(C)COc2c(C)csc2C1` (racemic) [Compound 238, N, 3,6-trimethyl-6,7-dihydro-5H-thieno[3,2-b]pyran-6-amine hydrochloride], for the setting “minimal effective dose: dose having 45% or more total activity in SmartCube, if only one dose tested, read-out: MED”, the minimal effective dose was above 3 mg/kg. In addition, under setting [3], the AD result is recorded as “ND (^ <4%)”, the AG result is on record as “ND (^ <4%)”, the AN entry is on record as “ND (^ <4%)” and the AP entry is on record as “ND (^ <4%)”. Moreover, under setting [3], the AX result is given as “ND (^ <4%)”, the CE result is “ND (^ <4%)”, the HL entry is given as “ND (^ <4%)” and the MS result was “ND (^ <4%)”. Also, under setting [3], the PS entry is reported as “ND (^ <4%)”, the SH result is reported as “ND (^ <4%)” and the UK entry is on record as “++ (≥24%)”.
Turning to `CNC1COc2scc(C(F)(F)F)c2C1` (racemic) [Compound 288, N-methyl-5-(trifluoromethyl)-3,4-dihydro-2H-thieno[2,3-b]pyran-3-amine hydrochloride], where the note is “minimal effective dose: dose having 45% or more total activity in SmartCube, if only one dose was tested, read-out: MED”, the minimal effective dose was above 3 mg/kg. Also, under setting [4], the AD result is given as “ND (^ <4%)”, the AG entry is given as “ND (^ <4%)”, the AN entry is recorded as “ND (^ <4%)” and the AP result is “ND (^ <4%)”. Moreover, under setting [4], the AX result is given as “ND (^ <4%)”, the CE entry is “ND (^ <4%)”, the HL entry is recorded as “ND (^ <4%)” and the MS result was “ND (^ <4%)”. Moreover, under setting [4], the PS entry is listed as “ND (^ <4%)”, the SH result is given as “ND (^ <4%)” and the UK result is recorded as “ND (^ <4%)”.
As for `CNC1CCc2ccsc2C1.Cl` (single isomer, unassigned) [Compound 9, N-methyl-4,5,6,7-tetrahydrobenzothiophen-6-amine hydrochloride], the “MED (minimal effective dose)” value under setting [5] was 0.1 mpk. Further, under setting [2], the AD result is listed as “++ (≥24%)”, the AG entry was “ND (^ <4%)”, the AN entry was “ND (^ <4%)” and the AP result was “++ (≥24%)”. Moreover, under setting [2], the MS result was “ND (^ <4%)” and the UK result is given as “ND (^ <4%)”. Moreover, under setting [6], the AX result is reported as “+ (≥4%)”, the CE result was “+ (≥4%)”, the HL result is on record as “+ (≥4%)” and the PS entry is on record as “+ (≥4%)”.
For `CNC1CCc2ccsc2C1.Cl` (single isomer, unassigned) [Compound 10, N-methyl-4,5,6,7-tetrahydrobenzothiophen-6-amine hydrochloride], the “MED (minimal effective dose)” value under setting [5] is given as 0.3 mpk. Also, under setting [2], the AD entry is recorded as “++ (≥24%)”, the AG entry is “ND (^ <4%)”, the AN result is reported as “ND (^ <4%)” and the AP entry is listed as “++ (≥24%)”. For the same molecule, under setting [2], the MS result was “ND (^ <4%)”, the SH entry is listed as “ND (^ <4%)” and the UK result is given as “ND (^ <4%)”. In addition, under setting [6], the AX result was “ND (^ <4%)”, the CE entry was “ND (^ <4%)”, the HL entry was “ND (^ <4%)” and the PS entry is “ND (^ <4%)”.
Regarding `CNC1CCc2sccc2C1.Cl` (single isomer, unassigned) [Compound 11, N-methyl-4,5,6,7-tetrahydrobenzothiophen-5-amine hydrochloride], the “MED (minimal effective dose)” value under setting [5] came out at 0.3 mpk. Moreover, under setting [2], the AG entry is given as “ND (^ <4%)”, the AN result is on record as “ND (^ <4%)”, the CE entry is recorded as “ND (^ <4%)” and the HL result is “ND (^ <4%)”. Besides, under setting [2], the MS result is “ND (^ <4%)”, the PS entry is reported as “ND (^ <4%)”, the SH result was “ND (^ <4%)” and the UK result is given as “ND (^ <4%)”. Under setting [6], the AD entry is recorded as “ND (^ <4%)”, the AP entry is on record as “++++ (≥74%)” and the AX result is “ND (^ <4%)”.
Regarding `CNC1CCc2sccc2C1.Cl` (single isomer, unassigned) [Compound 12, N-methyl-4,5,6,7-tetrahydrobenzothiophen-5-amine hydrochloride], under setting [5], the “MED (minimal effective dose)” value stood at 1.0 mpk. Further, under setting [2], the AG result is “ND (^ <4%)”, the AN entry is on record as “ND (^ <4%)”, the CE entry is reported as “ND (^ <4%)” and the HL entry is on record as “ND (^ <4%)”. Under setting [2], the MS result is given as “ND (^ <4%)”, the PS result is given as “ND (^ <4%)”, the SH result was “ND (^ <4%)” and the UK result is “ND (^ <4%)”. Under setting [6], the AD entry was “++ (≥24%)”, the AP entry was “+ (≥4%)” and the AX result is listed as “++ (≥24%)”.
Take `CNC1CCc2cscc2C1.Cl` (single isomer, unassigned) [Compound 13, N-methyl-4,5,6,7-tetrahydro-2-benzothiophen-5-amine hydrochloride]: under setting [1], the minimal effective dose stood at 0.3 mg/kg. Besides, under setting [2], the AG entry is listed as “ND (^ <4%)”, the AN entry was “ND (^ <4%)”, the AX result was “+ (≥4%)” and the HL result was “ND (^ <4%)”. Under setting [2], the MS result was “ND (^ <4%)”, the PS result was “ND (^ <4%)”, the SH result was “ND (^ <4%)” and the UK result is “ND (^ <4%)”. Further, under setting [6], the AD entry is given as “ND (^ <4%)”, the AP result was “+++ (≥49%)” and the CE entry is recorded as “+ (≥4%)”.
With `CNC1CCc2cscc2C1.Cl` (single isomer, unassigned) [Compound 14, N-methyl-4,5,6,7-tetrahydro-2-benzothiophen-5-amine hydrochloride], for the setting “dose having 45% or more total activity in SmartCube, if only one dose was tested”, the “MED (minimal effective dose)” value is given as 0.3 mpk. Besides, under setting [2], the AG result is recorded as “ND (^ <4%)”, the AN result is on record as “ND (^ <4%)”, the AX result is given as “+ (≥4%)” and the HL entry is “ND (^ <4%)”. In addition, under setting [2], the MS entry is listed as “ND (^ <4%)”, the PS result was “ND (^ <4%)”, the SH result was “ND (^ <4%)” and the UK entry is “ND (^ <4%)”. Further, under setting [6], the AD result is “++ (≥24%)”, the AP entry was “+ (≥4%)” and the CE entry is “ND (^ <4%)”.
